Experimental data as given in patent US11638427B2, “Methods and compositions for altering secondary metabolites in plants” (Impello Biosciences, Inc, priority 2020, dated 2023).

Legend:
[1] = tested on: high-CBD hemp varieties Stormy Daniels and BaOX; assay: Field foliar applications of MDJ, MeJA and CJ on high-CBD hemp, cannabinoid analysis; format: in vivo, Cannabis spp.; settings: 7.5 mM foliar, four applications every 14 days in flowering
Experimental: However, MDJ is not known to have any significant bioactivity in planta and is not an endogenously produced phytohormone in cannabis, so it was unknown whether MDJ would afford the same functionality as MeJA. Similarly, CJ has likewise been relatively under-investigated as a plant elicitor despite being a decarboxylation product of Jasmonic Acid. Here, the effect of MDJ and CJ were analyzed (in addition to MeJA) in order to determine any difference in the effect of these treatments on field-grown high-CBD hemp varieties.
A hemp field experiment was conducted during the flowering phase of plant development in a private research field located in North Carolina. Sixty (60) plants from two distinct plant variety populations, Stormy Daniels and BaOX were selected for the trial. Each group of 60 plants was randomly divided into three groups of 20 plants and labeled accordingly to indicate the treatment group (T1, T2, T3). All plants were cultivated identically and subjected to approximately the same environmental conditions. Control, untreated plants were taken from the same field. Plants were treated according to treatment group, and each treatment group was subjected to four (4) applications of its respective treatment, with the first treatments applied on what was considered to be the first day of the flowering phase and repeated then again every successive 14 days up until just prior to harvest. Treatments were as follows: Control group=Control, Treatment 1=MDJ, Treatment 2=MeJA, Treatment 3=CJ.
All treatments were prepared in a stock (concentrated, non-aqueous) form by Impello Biosciences in their lab in Loveland, Colo. and labelled respectively prior to the start of the experiment. All treatments were prepared at a high stock concentration that allowed dilution by the applicator with 2 liters of water to a final 7.5 mM concentration of active ingredient (i.e., MeJA, MDJ, or CJ) for each treatment; 15-mL centrifuge tubes were used as preparation and storage vessels for each of the treatments. Preparation of the stock solutions ensured that the applicator could store the solutions prior to use at 4° C. to minimize degradation and allow for dilution immediately prior to use. In the stock containers, 2 mL of TWEEN®-20 was added to each respective elicitor compound as an emulsifier in order to reach a final oil-in-water emulsion once diluted with a concentration of 7.5 mM active ingredient and 0.1% surfactant (i.e., TWEEN®-20) v/v.
Plants were grown to maturity and 5 plants from each treatment and control group were sampled on Sep. 23, 2019. Care was taken to ensure samples were similar in appearance and spatial location between plants to minimize unintended variance in sample quality. The apical cola for each plant was harvested, and specifically, the top 3″ of the main cola. Yield data was not collected in this study, but no obvious differences in plant size or appearance were noted. Samples were submitted for chemical analysis (Avazyme, Inc, NC).
All models were linear models fit with Group (treatment) as the independent variable and the response variable was the corresponding compound. Data was filtered and comparison between treatments were conducted using the emmeans package and Tukey HSD for post-hoc corrections. Statistical significance was defined by a level of significance of p<0.05 in the Tukey test. Total cannabinoids included CBN, Δ9-THC, CBDV, CBG, CBD, CBC, CBDA, CBGA, THCA, and THCV. Total THC and total CBD were calculated by accounting for the additional weight of the carboxyl group in the acidic forms and adding those to the neutral/non-acidic forms.

Diaporthe rudis = assay: Mold growth on jasmonate-infused plates, mold 3 isolated from avocado; format: cell-based; settings: various concentrations in plates
Experimental: MDJ (TCI, CAS No.: 24851-98-7) and CJ were infused into potato dextrose agar (PDA, VWR Cat No.: 90003-494) petri dishes (100×15 mm VWR, Cat No: 25384-094) at concentrations ranging from 1 mM, 4.25 mM, and 10 mM. Each treatment was prepared using a technical grade stock solution of pure chemical (CJ or MDJ) diluted with TWEEN®-20 (VWR, CAS No.: […]). Culturable oyster mushroom and seedling mold served to create fungal mycelial plugs using a sterile 1 mL pipette tip (Eppendorf, Cat No.: 022491458) held upside down. The tips were used to make circle excisions (i.e., fungal plugs) from a mycelial mat grown on PDA with no biochemical infusions. Fungal pugs were then transferred to PDA infused with varying concentrations of CJ or MDJ, and control plates (no CJ or MDJ infusion) to monitor fungal growth at room temperature over time.
Based on the above results in Cannabis spp., additional fungi from various crops was sampled and tested. Plates comprising various concentrations of MDJ or MJ were prepared as described above.

| SMILES | CBDA increase relative to the control group [1] | THCA increase relative to the control group [1] | Total CBD increase relative to the control group [1] | Total Cannabinoids increase relative to the control group [1] | Total THC increase relative to the control group [1] | growth of mold isolated from avocado (mold 3) (Diaporthe rudis) |
| --- | --- | --- | --- | --- | --- | --- |
| CCCCCC1C(=O)CCC1CC(=O)OC (stereo not drawn) [MDJ, methyl dihydrojasmonate] | 16.53% | 19.69% | 16.62% | 16.38% | 19.61% | effective at preventing the growth |
| CC/C=C\C[C@H]1C(=O)CC[C@@H]1CC(=O)OC [MeJA, Methyl Jasmonate] | 5.36% | 5.36% | 5.75% | 5.64% | 6.06% | effective at preventing the growth |
